The target in this experiment is T1, human FXa (Homo sapiens, UniProt P00742).
T1 construct: FXa solution (human FXa, Haematologic Technologies Inc., Essec Junction, Vt., USA); purchased Haematologic Technologies Inc
The experiment is described as follows: Measurement of Factor Xa inhibition (chromogenic substrate S-2765 method). It counts as biochemical. The note with it: inhibition of Factor Xa activity, screen a), specimen results. The protocol: a) Measurement of Factor Xa Inhibition
The FXa inhibitor potency was measured with a chromogenic substrate method, in a Plato 3300 robotic microplate processor (Rosys AG, CH-8634 Hombrechtikon, Switzerland), using 96-well, half-volume microtiter plates (Costar, Cambridge, Mass., USA; Cat No 3690). Stock solutions of test substance in DMSO (72 μL), 10 mmol/L, alternatively 1 mmol/L were diluted serially 1:3 (24+48 μL) with DMSO to obtain ten different concentrations, which were analyzed as samples in the assay, together with controls and blanks. As control sample melagatran was analysed. The dilutions of each test substance were analyzed consecutively, row-wise on the microtiter plate, with wash-cycles between substances to avoid cross-contamination. […] The final assay concentrations were: test substance 0.0068-133, respectively 0.00068-13.3 μmol/L, S-2765 0.40 mmol/L (KM=0.25 mmol/L) and FXa […]. The linear absorbance increase at 405 nm during 40 min incubation at 37° C. was used for calculation of percent inhibition for the test samples, as compared to references without inhibitor and/or enzyme. […]

In patent US20080200431A1, “Heterocyclic Sulfonamide Derivatives as Inhibitors of Factor Xa” (ASTRAZENECA AB, priority 2005, published 2008) one finds IC50 data, which are given here for two compounds.

Each structure is given as a SMILES string.

What is called IC50 is the concentration at which inhibition is half-maximal. The low end stands for higher potency, the high end for lower potency.

T1 sequence (P00742 235-488 limits assumed): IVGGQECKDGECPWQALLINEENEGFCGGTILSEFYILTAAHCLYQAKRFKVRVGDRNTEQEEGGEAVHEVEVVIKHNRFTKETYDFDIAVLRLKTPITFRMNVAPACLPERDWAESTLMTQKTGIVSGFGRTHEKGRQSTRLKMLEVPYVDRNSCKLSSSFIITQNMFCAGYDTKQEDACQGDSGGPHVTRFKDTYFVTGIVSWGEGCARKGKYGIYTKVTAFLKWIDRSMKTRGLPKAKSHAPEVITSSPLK
T1 sequence (P00742 41-179 partner limits assumed): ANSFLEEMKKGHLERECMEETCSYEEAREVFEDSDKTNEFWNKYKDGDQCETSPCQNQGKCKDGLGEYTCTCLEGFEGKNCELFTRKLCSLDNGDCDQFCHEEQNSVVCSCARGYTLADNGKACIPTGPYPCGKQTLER

For the compound `Cn1nc(N2CCC(C(=O)N3CCN(S(=O)(=O)c4ccc5c(Cl)c[nH]c5c4)C(O)C3)CC2)ccc1=O` (centres unmarked) [Example 3, 6-{4-[4-(3-Chloro-1H-indole-6-sulfonyl)-3-hydroxy-piperazine-1-carbonyl]-piperidin-1-yl}-2-methyl-2H-pyridazin-3-one], the IC50 was determined as 4.8 nM.

Turning to `Cc1cc(N2CCC(C(=O)N3CCN(S(=O)(=O)c4ccc5c(Cl)c[nH]c5c4)CC3)CC2)c[nH]c1=O` [Example 6, 4-[4-(3-Chloro-1H-indole-6-sulfonyl)-piperazine-1-carbonyl]-5′-methyl-3,4,5,6-tetrahydro-2H,1′H-[1,3′]bipyridinyl-6′-one], half-maximal inhibition (IC50) was put at 98 nM.
